# Test results from patent publication US20210380722A1, “COMPOSITIONS AND METHODS FOR THE TREATMENT OF MAJOR DEPRESSIVE DISORDER” (Snake River Bioscience, Inc., priority 2019, published 2021).
# How the values were obtained:
# wildtype mice [1] = assay: C16-ceramide loaded plasma or exosomes injected i.v. into wildtype mice; assay type: in vivo; conditions: plasma or exosomes of untreated mice loaded with 2 μM C16-ceramide, FIG. 4e
# Experimental: Plasma or exosomes were loaded with C16 ceramide or deuterated C16 ceramide (Avanti Polar Lipids, USA) by incubation of purified exosomes with 2 μM C16 ceramide or 2 deuterated C16 ceramide in 100 μL PBS for 60 min at 37° C. Plasma samples were directly injected i.v. into healthy mice. Exosomes were centrifuged again at 100,000×g for 70 min, the supernatant was discarded, resuspended in PBS and injected i.v. into healthy mice.
# For BrdU staining, mice were injected with BrdU 4 times, once every 2 h. Mice were sacrificed 24 h after the first injection and brains were prepared as above. […]
# Behavioral testing was performed between 3:00 p.m. and 6:00 p.m. under diffuse indirect room light. […] The time was recorded during which the mice explored a new environment before they began eating. […] The time that the mouse spent in each of the separate compartments was recorded. […] In the coat state test, the appearance of the coat (groomed vs unkempt coat) was scored on the head, neck, back, and ventrum with either a zero for normal status or a 1 for unkempt status. […] After 24 h the mice were again placed in a water-filled cylinder for 6 min, and the time of mobility or immobility during the last 4 min of the second trial was recorded. […]
# hippocampal neurons = conditions: cited from earlier work; for autophagy: Gulbins et al., Molecular Psychiatry (2018)
# sphingomyelin synthases = conditions: direct inhibition of sphingomyelin synthases; cited from earlier work
# untreated mice = assay: high dose of corticosterone in untreated mice, symptoms of major depression after 24 h; assay type: in vivo; conditions: 1 mg/kg, data not shown
# Experimental: To exclude the possibility that investigators were measuring the effects of corticosterone that might have remained in the plasma of these mice, untreated mice were injected with a high dose of corticosterone (1 mg/kg) and the presence of biochemical and behavioral symptoms of major depression after 24 h were assessed.
# wildtype mice [2] = assay: ceramide concentrations in exosomes from blood plasma of stressed mice (mass spectrometry, kinase assay); assay type: in vivo; conditions: corticosterone via drinking water 120 mg/L for 7 days; FIG. 1c
# Experimental: Corticosterone (Sigma, St. Louis, Mo.) was administered to mice via the drinking water at 120 mg/L for 7 days. In the chronic unpredictable stress model (CUS), the mice were challenged with unpredictable environmental stress for 8 days, i.e., a reversal of the light/dark cycle, 3 h of 45° tilting of the cage twice each week, shaking at 125 rpm, food deprivation for 14 h, predator sounds (15 min) or wet cages (1 h) with two forms of stress per day in a randomized (unpredictable) order. Blood was collected from the heart into heparin-coated needles and tubes immediately after sacrifice by cervical dislocation. Blood plasma was centrifuged at 3500 rpm for 5 min at 4° C. in an Eppendorf centrifuge. […]
# 10 μL of blood plasma or of resuspended exosomes (corresponding to 50 μL plasma) was added to 190 μL H2O and extracted in 600 μL CHCl3:CH3OH:1N HCl (100:100:1, v/v/v). […] Ceramide amounts were determined by comparison with a standard curve; C16 to C24 ceramides were used as substrates.
# Samples were subjected to lipid extraction with 1.5 mL methanol/chloroform (2:1, v:v). […] Dried residues were reconstituted in 200 μL of a 95:5 (v:v) mixture of high-performance liquid chromatography (HPLC) eluents B:A (see below), thoroughly vortexed for 10 min at 1,500 rpm, centrifuged at 2,200×g for 10 min at 4° C., and subjected to mass spectrometric sphingolipid quantification. […]
structure (smiles),measurement,setting,value
"CCCCCCCCCCCCC/C=C/[C@@H](O)[C@H](CO)NC(=O)CCCCCCCCCCCCCCC [C16-ceramide, C16 ceramide]",induction of MDD (behavioral changes and neuronal proliferation),wildtype mice [1],sufficient to induce MDD within 24 h
S=C(S)OC1CC2CC1C1CCCC21 (centres unmarked) [D609],autophagy,hippocampal neurons,activation of autophagy
same,ceramide in the endoplasmic reticulum (ER),hippocampal neurons; direct inhibition of sphingomyelin synthases,rapid accumulation of ceramide in the ER
same,stress-induced MDD,sphingomyelin synthases,rapid reversal of stress-induced MDD
CN(C)CCC=C1c2ccccc2CCc2ccccc21 [amitriptyline],autophagy,hippocampal neurons,induce autophagy in hippocampal neurons
CNCCC(Oc1ccc(C(F)(F)F)cc1)c1ccccc1 (centres unmarked) [fluoxetine],autophagy,hippocampal neurons,induce autophagy in hippocampal neurons
"C[C@]12C[C@H](O)[C@H]3[C@@H](CCC4=CC(=O)CC[C@@]43C)[C@@H]1CC[C@@H]2C(=O)CO [glucocorticosterone, Corticosterone]",induction of MDD (biochemical and behavioral symptoms of major depression),untreated mice,not sufficient to induce MDD
same,ceramide concentrations in exosomes in the blood plasma,wildtype mice [2],marked increase in ceramide concentrations
